Laboratory results published in patent publication US12276654B2, “Chemical probe-dependent evaluation of protein activity and uses thereof” (The University of Chicago, priority 2017, dated 2025).

Key:
[1] = molecular target: T1, FAAH (Mus musculus, UniProt O08914); assay: sADPL in vivo target engagement in mPBMCs after oral gavage, off-target FAAH; conditions: mice, 3 and 80 mg/kg
T1 construct: Then the mPBMCs were acquired from the mouse blood and subjected to family wide probe treatment; from tissue; host or cells: mouse blood PBMCs (mPBMCs)
T1 sequence (O08914 1-579): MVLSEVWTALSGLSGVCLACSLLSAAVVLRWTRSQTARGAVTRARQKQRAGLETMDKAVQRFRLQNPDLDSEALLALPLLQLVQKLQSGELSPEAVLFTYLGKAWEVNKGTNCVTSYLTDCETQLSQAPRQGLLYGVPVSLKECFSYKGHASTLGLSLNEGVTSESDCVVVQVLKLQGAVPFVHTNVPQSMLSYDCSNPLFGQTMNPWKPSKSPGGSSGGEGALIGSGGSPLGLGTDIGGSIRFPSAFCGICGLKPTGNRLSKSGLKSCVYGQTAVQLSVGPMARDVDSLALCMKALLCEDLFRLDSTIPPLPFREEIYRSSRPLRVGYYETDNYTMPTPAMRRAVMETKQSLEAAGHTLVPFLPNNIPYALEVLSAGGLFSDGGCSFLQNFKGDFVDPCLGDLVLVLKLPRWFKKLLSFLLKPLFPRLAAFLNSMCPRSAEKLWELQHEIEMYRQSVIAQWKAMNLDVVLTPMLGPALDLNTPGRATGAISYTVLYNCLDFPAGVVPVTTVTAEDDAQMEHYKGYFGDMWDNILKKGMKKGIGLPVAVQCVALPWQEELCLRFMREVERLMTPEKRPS
Excerpt: FIG. 25. In vivo Target Engagement. The mice were administrated with vehicle (PEG300) or NCEH1 inhibitor JW480 by oral gavage. Then the mPBMCs were acquired from the mouse blood and subjected to family wide probe treatment to profile the in vivo target engagement.
Following the in vitro study, in vivo target engagement was planned. In this experiment, the inventors orally gavaged the mice with vehicle or inhibitors, then collected the mPBMCs for probe treatment and sADPL measurement. Again, first the activity of NCEH1 was tested in mice PBMCs, and good activity was found. The delta Ct is over 7 cycles, which is over 100 fold change.

[2] = molecular target: T2, NCEH1 (Homo sapiens, UniProt Q6PIU2); design: endogenous NCEH1 activity in SKOV3 cells; endogenous in cells; host or cells: SKOV3; wild-type PC3; PAFAH2-expressing PC3; conditions: previously reported; PC3 cells; read-out: IC50 for NCEH1 previously reported by gel-based profiling; cited from earlier work
T2 sequence (Q6PIU2 1-408): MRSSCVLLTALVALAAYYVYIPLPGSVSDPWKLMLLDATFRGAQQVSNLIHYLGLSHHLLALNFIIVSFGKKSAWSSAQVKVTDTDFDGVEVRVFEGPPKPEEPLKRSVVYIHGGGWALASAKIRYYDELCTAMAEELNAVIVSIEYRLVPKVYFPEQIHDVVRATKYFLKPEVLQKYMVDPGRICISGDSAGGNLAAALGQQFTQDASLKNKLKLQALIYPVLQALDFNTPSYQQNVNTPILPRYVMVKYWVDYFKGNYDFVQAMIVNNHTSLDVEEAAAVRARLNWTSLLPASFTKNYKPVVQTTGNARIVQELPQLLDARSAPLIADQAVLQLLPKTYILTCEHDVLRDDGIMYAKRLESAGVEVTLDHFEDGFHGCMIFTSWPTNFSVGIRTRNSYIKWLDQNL

SMILES: CC(C)c1ccccc1OC(=O)NCCc1ccc2ccccc2c1 [JW480]
- in vivo target engagement of off-target FAAH in mPBMCs [1]: no target engagements were observed
- IC50 [2]: 12 nM
